Experimental data reported in the supplement of paper PMC10307832.

Tests used:
Assay in all cases: relative viability (nuclei count vs DMSO), 5 days (fraction); higher = more cells survive
RERF-LC-KJ = test system: RERF-LC-KJ
Method in brief: (§1)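 The day after seeding in 1536-well plates, lung cancer cell lines were treated by pin tool with a single drug, or with a fixed anchor-drug dose together with five library-drug doses (not always all listed) in √10 steps. After 5 days, a combined fix-and-stain solution (final 0.05% Triton X-100, 1% formaldehyde, 1 ug/ml Hoechst) was added. Nuclei counted on 4× images gave relative viability as treated counts over vehicle counts, reported as the median of duplicate plates.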

EKVX = test system: EKVX
Method in brief: as §1

NCI-H2405 = test system: NCI-H2405
Method in brief: as §1

NCI-H1666 = test system: NCI-H1666
Method in brief: as §1

NCI-H838 = test system: NCI-H838
Method in brief: as §1

NCI-H1395 = test system: NCI-H1395
Method in brief: as §1

COR-L23 = test system: COR-L23
Method in brief: as §1

HARA = test system: HARA
Method in brief: as §1

BEN = test system: BEN
Method in brief: as §1

NCI-H460 = test system: NCI-H460
Method in brief: as §1

NCI-H1993 = test system: NCI-H1993
Method in brief: as §1

LOU-NH91 = test system: LOU-NH91
Method in brief: as §1

NCI-H1975 = test system: NCI-H1975
Method in brief: as §1

NCI-H1793 = test system: NCI-H1793
Method in brief: as §1

NCI-H650 = test system: NCI-H650
Method in brief: as §1

NCI-H1915 = test system: NCI-H1915
Method in brief: as §1

NCI-H2228 = test system: NCI-H2228
Method in brief: as §1

NCI-H2023 = test system: NCI-H2023
Method in brief: as §1

LU99A = test system: LU99A
Method in brief: as §1

A-427 = test system: A-427
Method in brief: as §1

SW 1573 = test system: SW 1573
Method in brief: as §1

## COCC1(CO)C(=O)C2CCN1CC2 (stereo not given) [PRIMA-1MET] + Cc1nc(NC(=O)N2CCC[C@H]2C(N)=O)sc1-c1ccnc(C(C)(C)C(F)(F)F)c1 [Alpelisib] (partner 2 µM)
RERF-LC-KJ; first compound 0.2 µM
  relative viability: 0.797
RERF-LC-KJ; first compound 0.6325 µM
  relative viability: 0.835
RERF-LC-KJ; first compound 2 µM
  relative viability: 0.715
RERF-LC-KJ; first compound 6.325 µM
  relative viability: 1.01
RERF-LC-KJ; first compound 20 µM
  relative viability: 0.75
EKVX; first compound 0.2 µM
  relative viability: 0.978
EKVX; first compound 0.6325 µM
  relative viability: 0.966
EKVX; first compound 2 µM
  relative viability: 0.638
EKVX; first compound 6.325 µM
  relative viability: 0.911
EKVX; first compound 20 µM
  relative viability: 0.778
NCI-H2405; first compound 0.2 µM
  relative viability: 0.517
NCI-H2405; first compound 0.6325 µM
  relative viability: 0.896
NCI-H2405; first compound 6.325 µM
  relative viability: 0.625
NCI-H2405; first compound 20 µM
  relative viability: 0.0731
NCI-H1666; first compound 0.2 µM
  relative viability: 1.1
NCI-H1666; first compound 0.6325 µM
  relative viability: 0.879
NCI-H1666; first compound 2 µM
  relative viability: 0.999
NCI-H1666; first compound 6.325 µM
  relative viability: 0.834
NCI-H1666; first compound 20 µM
  relative viability: 0.123
NCI-H838; first compound 0.2 µM
  relative viability: 1.26
NCI-H838; first compound 0.6325 µM
  relative viability: 0.968
NCI-H838; first compound 2 µM
  relative viability: 1.06
NCI-H838; first compound 6.325 µM
  relative viability: 1.13
NCI-H838; first compound 20 µM
  relative viability: 0.61
NCI-H1395; first compound 0.2 µM
  relative viability: 1.13
NCI-H1395; first compound 0.6325 µM
  relative viability: 0.737
NCI-H1395; first compound 2 µM
  relative viability: 0.977
NCI-H1395; first compound 6.325 µM
  relative viability: 0.993
NCI-H1395; first compound 20 µM
  relative viability: 0.635
COR-L23; first compound 0.2 µM
  relative viability: 0.783
COR-L23; first compound 0.6325 µM
  relative viability: 0.699
COR-L23; first compound 2 µM
  relative viability: 0.869
COR-L23; first compound 6.325 µM
  relative viability: 0.726
COR-L23; first compound 20 µM
  relative viability: 0.0226
HARA; first compound 0.2 µM
  relative viability: 0.97
HARA; first compound 0.6325 µM
  relative viability: 0.603
HARA; first compound 6.325 µM
  relative viability: 0.836
HARA; first compound 20 µM
  relative viability: 0.954
BEN; first compound 0.2 µM
  relative viability: 1.26
BEN; first compound 0.6325 µM
  relative viability: 0.833
BEN; first compound 6.325 µM
  relative viability: 0.909
BEN; first compound 20 µM
  relative viability: 0.994
NCI-H460; first compound 0.2 µM
  relative viability: 0.571
NCI-H460; first compound 0.6325 µM
  relative viability: 0.358
NCI-H460; first compound 2 µM
  relative viability: 0.411
NCI-H460; first compound 6.325 µM
  relative viability: 0.0066
NCI-H460; first compound 20 µM
  relative viability: 0.0038
NCI-H1993; first compound 0.2 µM
  relative viability: 0.724
NCI-H1993; first compound 0.6325 µM
  relative viability: 0.706
NCI-H1993; first compound 2 µM
  relative viability: 0.628
NCI-H1993; first compound 6.325 µM
  relative viability: 0.768
NCI-H1993; first compound 20 µM
  relative viability: 0.664
LOU-NH91; first compound 0.2 µM
  relative viability: 0.78
LOU-NH91; first compound 0.6325 µM
  relative viability: 0.652
LOU-NH91; first compound 2 µM
  relative viability: 0.569
LOU-NH91; first compound 6.325 µM
  relative viability: 0.669
LOU-NH91; first compound 20 µM
  relative viability: 0.507
NCI-H1975; first compound 0.2 µM
  relative viability: 0.822
NCI-H1975; first compound 0.6325 µM
  relative viability: 0.603
NCI-H1975; first compound 2 µM
  relative viability: 0.694
NCI-H1975; first compound 6.325 µM
  relative viability: 0.68
NCI-H1975; first compound 20 µM
  relative viability: 0.574
NCI-H1793; first compound 0.2 µM
  relative viability: 0.953
NCI-H1793; first compound 0.6325 µM
  relative viability: 0.676
NCI-H1793; first compound 6.325 µM
  relative viability: 0.736
NCI-H1793; first compound 20 µM
  relative viability: 0.707
NCI-H650; first compound 0.2 µM
  relative viability: 1.38
NCI-H650; first compound 2 µM
  relative viability: 1.08
NCI-H650; first compound 6.325 µM
  relative viability: 1.02
NCI-H650; first compound 20 µM
  relative viability: 0.099
NCI-H1915; first compound 0.2 µM
  relative viability: 1.15
NCI-H1915; first compound 0.6325 µM
  relative viability: 0.861
NCI-H1915; first compound 2 µM
  relative viability: 0.853
NCI-H1915; first compound 6.325 µM
  relative viability: 1.01
NCI-H1915; first compound 20 µM
  relative viability: 0.974
NCI-H2228; first compound 0.2 µM
  relative viability: 1.06
NCI-H2228; first compound 0.6325 µM
  relative viability: 0.654
NCI-H2228; first compound 2 µM
  relative viability: 0.744
NCI-H2228; first compound 6.325 µM
  relative viability: 0.534
NCI-H2228; first compound 20 µM
  relative viability: 0.0746
NCI-H2023; first compound 0.2 µM
  relative viability: 0.7
NCI-H2023; first compound 0.6325 µM
  relative viability: 0.69
NCI-H2023; first compound 2 µM
  relative viability: 0.564
NCI-H2023; first compound 6.325 µM
  relative viability: 0.615
NCI-H2023; first compound 20 µM
  relative viability: 0.568
LU99A; first compound 0.2 µM
  relative viability: 0.631
LU99A; first compound 0.6325 µM
  relative viability: 0.457
LU99A; first compound 2 µM
  relative viability: 0.488
LU99A; first compound 6.325 µM
  relative viability: 0.293
LU99A; first compound 20 µM
  relative viability: 0.0448
A-427; first compound 0.2 µM
  relative viability: 1.04
A-427; first compound 0.6325 µM
  relative viability: 1.05
A-427; first compound 2 µM
  relative viability: 0.9
A-427; first compound 6.325 µM
  relative viability: 1.04
A-427; first compound 20 µM
  relative viability: 1.07
SW 1573; first compound 0.2 µM
  relative viability: 0.845
SW 1573; first compound 0.6325 µM
  relative viability: 0.691
SW 1573; first compound 2 µM
  relative viability: 0.538
SW 1573; first compound 6.325 µM
  relative viability: 0.355
SW 1573; first compound 20 µM
  relative viability: 0.0324
